In ChEMBL document CHEMBL1201862, “PubChem BioAssay data set” (2004):
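Method: 48-hour compound exposure of cells in 96-well plates, five concentrations, linear interpolation of endpoints. Abbreviation: GI50, concentration required for 50% inhibition of growth.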 Active and inactive are the calls of the source. Cut-off read from the data, not from the text of the source: active = GI50 up to about 1.1 µM and inactive = higher.

Key:
Experiment in all cases: DTP human tumour cell line panel, 48 h
SNB-75 = tested on: SNB-75
OVCAR-5 = tested on: OVCAR-5
SK-MEL-28 = tested on: SK-MEL-28
786-0 = tested on: 786-0
A498 = tested on: A498
M19-MEL = tested on: M19-MEL
SW-620 = tested on: SW-620
UACC-257 = tested on: UACC-257
LXFL 529 = tested on: LXFL 529
DLD-1 = tested on: DLD-1
RXF 393 = tested on: RXF 393
KM12 = tested on: KM12
M14 = tested on: M14
CCRF-CEM = tested on: CCRF-CEM
KM-20L2 = tested on: KM-20L2
RPMI-8226 = tested on: RPMI-8226
NCI-H23 = tested on: NCI-H23
IGROV-1 = tested on: IGROV-1
UACC-62 = tested on: UACC-62
HT-29 = tested on: HT-29
HOP-18 = tested on: HOP-18
NCI-H226 = tested on: NCI-H226
HCT-15 = tested on: HCT-15
CAKI-1 = tested on: CAKI-1
RXF 631 = tested on: RXF 631
SN12C = tested on: SN12C
DMS-273 = tested on: DMS-273
U-251 = tested on: U-251
HCC 2998 = tested on: HCC 2998
HOP-92 = tested on: HOP-92
ACHN = tested on: ACHN
UO-31 = tested on: UO-31
COLO 205 = tested on: COLO 205
Malme-3M = tested on: Malme-3M
K562 = tested on: K562
SNB-19 = tested on: SNB-19
SK-OV-3 = tested on: SK-OV-3
LOX IMVI = tested on: LOX IMVI
SNB-78 = tested on: SNB-78
SF-268 = tested on: SF-268
NCI-H460 = tested on: NCI-H460
DMS-114 = tested on: DMS-114
A549 = tested on: A549
HCT-116 = tested on: HCT-116
OVCAR-8 = tested on: OVCAR-8
EKVX = tested on: EKVX
TK-10 = tested on: TK-10
OVCAR-4 = tested on: OVCAR-4
NCI-H522 = tested on: NCI-H522
SK-MEL-2 = tested on: SK-MEL-2

With `O=S1(=O)CS(=O)(=O)OCCCCCO1` the GI50 (SNB-75) was > 100 µM (inactive), the GI50 (OVCAR-5) was > 100 µM (inactive) and the GI50 (SK-MEL-28) was > 100 µM (inactive). For the same compound, the GI50 (786-0) was > 100 µM (inactive), the GI50 (A498) was > 100 µM (inactive) and the GI50 (M19-MEL) was > 100 µM (inactive). For the same compound, the GI50 (SW-620) was > 100 µM (inactive), the GI50 (UACC-257) was > 100 µM (inactive) and the GI50 (LXFL 529) was > 100 µM (inactive). For the same compound, the GI50 (DLD-1) was > 100 µM (inactive), the GI50 (RXF 393) was > 100 µM (inactive) and the GI50 (KM12) was > 100 µM (inactive). For the same compound, the GI50 (M14) was > 100 µM (inactive), the GI50 (CCRF-CEM) was > 100 µM (inactive) and the GI50 (KM-20L2) was > 100 µM (inactive). The GI50 (RPMI-8226) was > 100 µM (inactive), the GI50 (NCI-H23) was > 100 µM (inactive) and the GI50 (IGROV-1) was > 100 µM (inactive). The GI50 (UACC-62) was > 100 µM (inactive), the GI50 (HT-29) was > 100 µM (inactive) and the GI50 (HOP-18) was > 100 µM (inactive). For the same compound, the GI50 (NCI-H226) was > 100 µM (inactive), the GI50 (HCT-15) was over 100 µM and the GI50 (CAKI-1) was > 100 µM (inactive). For the same compound, the GI50 (RXF 631) was > 100 µM (inactive), the GI50 (SN12C) was > 100 µM (inactive) and the GI50 (DMS-273) was > 100 µM (inactive). The GI50 (U-251) was > 100 µM (inactive), the GI50 (HCC 2998) was > 100 µM (inactive) and the GI50 (HOP-92) was > 100 µM (inactive). For the same compound, the GI50 (ACHN) was > 100 µM (inactive), the GI50 (UO-31) was > 100 µM (inactive) and the GI50 (COLO 205) was > 100 µM (inactive). The GI50 (Malme-3M) was > 100 µM (inactive), the GI50 (K562) was > 100 µM (inactive) and the GI50 (SNB-19) was > 100 µM (inactive). The GI50 (SK-OV-3) was > 100 µM (inactive), the GI50 (LOX IMVI) was > 100 µM (inactive) and the GI50 (SNB-78) was > 100 µM (inactive). For the same compound, the GI50 (SF-268) was > 100 µM (inactive), the GI50 (NCI-H460) was > 100 µM (inactive) and the GI50 (DMS-114) was > 100 µM (inactive). The GI50 (A549) was > 100 µM (inactive), the GI50 (HCT-116) was > 100 µM (inactive) and the GI50 (OVCAR-8) was > 100 µM (inactive). The GI50 (EKVX) was > 100 µM (inactive), the GI50 (TK-10) was > 100 µM (inactive) and the GI50 (OVCAR-4) was > 100 µM (inactive). The GI50 (NCI-H522) was > 100 µM (inactive) and the GI50 (SK-MEL-2) was > 100 µM (inactive).
